# According to publication PMC11040653, “Fluorescent carbazole-derived α-amino acids: structural mimics of tryptophan” (Chemical Science, 2024):
# No end group written: not given here. 13e = not defined here
# How the values were obtained:
# [1] = ethanol; standard reference; ref 9 (supplement); cited from earlier work
# Description: page 24: 5. Photophysical Data for a-Amino Acids 13a–e Absorption and emission data were recorded using the following instruments: 1. UV-Vis spectra were recorded on a Perkin Elmer Lamda 25 instrument. Fluorescence spectra were recorded on a Shimadzu RF-5301PC spectrofluorophotometer. Emission data were measured using excitation and emission bandpass filters of 3 nm. 2. Both UV-Vis spectra and fluorescence spectra were recorded on a Horiba Duetta Fluorescence and Absorbance spectrometer. Absorbance spectra were recorded with an integration time of 0.05 s, and a band pass of 5 nm. Fluorescence ...
# [2] = Fluorescence quantum yield (comparative method, anthracene and L-tryptophan standards) and brightness; format: physicochemical; settings: for Φ F (quantum yield): anthracene and L-tryptophan as standards, five concentrations, absorption below 0.1
# Description: (§1) Next, the photophysical properties of amino acids 13a–13e were measured.[22,23] As it was important to identify an amino acid that could be used as a probe for different applications, the photophysical properties were assessed in both an organic solvent (methanol) and water (Table 2).
# (§2) 5. Photophysical Data for a-Amino Acids 13a–e
# (§3) Absorption and emission data were recorded using the following instruments:
# (§4) 1. UV-Vis spectra were recorded on a Perkin Elmer Lamda 25 instrument. Fluorescence spectra were recorded on a Shimadzu RF-5301PC spectrofluorophotometer. Emission data were measured using excitation and emission bandpass filters of 3 nm.
# (§5) 2. Both UV-Vis spectra and fluorescence spectra were recorded on a Horiba Duetta Fluorescence and Absorbance spectrometer. Absorbance spectra were recorded with an integration time of 0.05 s, and a band pass of 5 nm. Fluorescence spectra were recorded with and excitation and emission band pass of 5 nm, an integration time of 2 s, and with detector accumulations set to 1.
# Quantum yields were determined using a comparative method against two standards. Anthracene (Φ = 0.27, in ethanol) and ʟ-tryptophan (Φ = 0.14 in water) were used as standard references.9 The integrated fluorescence intensity of each compound was determined from the emission spectra given.
# Measurements were performed at five different concentrations. Concentrations were chosen to ensure the absorption value was below 0.1 to avoid re-absorption effects. Integrated fluorescence intensity was plotted as a function of the measured absorbance and a linear fit was calculated. The resultant gradient was then used to calculate the quantum yield, using the equation below: […]
# Subscript ST signifies the quantities associated with the quantum yield standard. Subscript X signifies the quantities associated with the novel compound. GradX is the determined gradient associated with the novel compound. GradST is the determined gradient associated with quantum yield standard. η is the refractive index of the solvent used in the fluorescence measurements. η = 1.333 for water, 1.361 for ethanol and 1.331 for methanol.
# [3] = UV-Vis absorption and fluorescence emission spectra of amino acids 13a–e; format: physicochemical; settings: for λ Abs / λ Em / λ Em (second wavelength): 5 μM; for λ Abs: UV-Vis; for λ Em / λ Em (second wavelength): fluorescence
# Description: as §1, §2, §3, §4
# as §5, with “1. […]” for “1.”
# [4] = Solvatochromism of 13c–13e (emission in various solvents); format: physicochemical; settings: emission in solvents of different polarity
# Description: Measurements were performed at five different concentrations. […] Integrated fluorescence intensity was plotted as a function of the measured absorbance and a linear fit was calculated. […]
# Subscript ST signifies the quantities associated with the quantum yield standard. Subscript X signifies the quantities associated with the novel compound. […]
# [5] = parameters: method as in PMID 30957824; settings: cited from earlier work
# Text: In combination with fluorescent spectroscopy, α-amino acids have also been used for molecular imaging, providing a method to study and visualise cellular processes in real time.[3] […] Furthermore, their occurrence at multiple sites within a protein can complicate spectroscopic analysis. To overcome these issues, many studies utilise extrinsic fluorescent labels.[4] However, these are typically large chromo ...
# [6] = Circular dichroism spectroscopy of modified TrpZip1 peptide; format: physicochemical
# Description: Following successful preparation of the carbazole α-amino acids, these were investigated as structural mimics of tryptophan. The effect of substituting amino acid 13e for a tryptophan residue in a well-characterised designed peptide was studied. The beta hairpin TrpZip1 was chosen as a model of beta structure.[21] An Fmoc-derivative of amino acid 13e was prepared under standard conditions and incorporated into the peptide using SPPS protocols. The resulting peptide, 14 (Table 1) was purified by reverse phase HPLC and characterised using high resolution electrospray ionisation mass spectrometry.
Compound,Brightness ([2]; MeOH),Φ F (quantum yield) ([2]; MeOH),Brightness ([2]; Water) [cm⁻¹ M⁻¹],Φ F (quantum yield) ([2]; Water),ε (molar attenuation coefficient) ([3]; MeOH),λ Abs ([3]; MeOH) [nm],λ Em ([3]; MeOH) [nm],λ Em (second wavelength) ([3]; MeOH) [nm],ε (molar attenuation coefficient) ([3]; Water),λ Abs ([3]; Water) [nm],λ Em ([3]; Water) [nm],also measured
c1ccc2cc3ccccc3cc2c1 [Anthracene],,,,,,,,,,,,quantum yield of standard [1]: 0.27
"Cl.N[C@@H](Cc1ccc2[nH]c3ccccc3c2c1)C(=O)O [amino acid 13a, (2S)-2-Amino-3-(9H-carbazol-3’-yl)propanoic acid hydrochloride]",5120 cm⁻¹ M⁻¹,0.31,2460,0.28,16 500 cm^−1 M^−1,342,350,366,8800 cm⁻¹ M⁻¹,341,352,λ Em (second wavelength) ([3]; Water): 366 nm
"COc1ccc2c(c1)[nH]c1ccc(C[C@H](N)C(=O)O)cc12.Cl [amino acid 13b, (2S)-2-Amino-3-(7-methoxy-9H-carbazol-3’-yl)propanoic acid hydrochloride]",4450 cm⁻¹ M⁻¹,0.35,5200,0.43,12 700 cm^−1 M^−1,329,354,,12 100 cm^−1 M^−1,331,357,
"Cl.N[C@@H](Cc1ccc2[nH]c3ccc4ccccc4c3c2c1)C(=O)O [amino acid 13c, (2S)-2-Amino-3-(7H-benzo[c]carbazol-10-yl)propanoic acid hydrochloride]",12 240 cm^−1 M^−1,0.76,6430,0.59,16 100 cm^−1 M^−1,351,371,388,10 900 cm^−1 M^−1,,377,solvatochromism [4]: minimal solvatochromism; λ Em (second wavelength) ([3]; Water): 390 nm
"Cl.N[C@@H](Cc1ccc2[nH]c3cc(C(F)(F)F)ccc3c2c1)C(=O)O [amino acid 13e, (2S)-2-amino-3-(7-trifluoromethyl-9H-carbazol-3’-yl)propanoic acid hydrochloride]",700 cm⁻¹ M⁻¹,0.06,3360,0.24,11 600 cm^−1 M^−1,,365,378,14 000 cm^−1 M^−1,348,380,increase in brightness in water ([2]; water relative to methanol): ~5 fold; ε and quantum yield in water ([2]; water relative to methanol): enhanced in water; solvatochromism [4]: minimal solvatochromism
"N#Cc1cccc2[nH]cc(C[C@H](N)C(=O)O)c12 [compound 3, L-4-cyanotryptophan]",,,,,,,,,,,,fluorescence lifetime [5]: long fluorescence lifetime
peptide 14: TrpZip1 modified with amino acid 13e (SWTWEGNK-{13e-Thr-Trp-Lys-NH2}; reading uncertain),,,,,,,,,,,,"secondary structure ([6]; CD, carbazole amino acid 13e replacing tryptophan in TrpZip1): preserved the original secondary structure; CD maximum ([6]; circular dichroism): 228 nm; CD minimum ([6]; circular dichroism): 214 nm; near-UV CD signal ([6]; circular dichroism, indicative of ordered aromatic side chains): 280–310 nm"
